Data from US20220280511A1, “CDK4/6 INHIBITORS FOR THE TREATMENT OF PSORIASIS” (EBERHARD KARLS UNIVERSITAET TUEBINGEN MEDIZINISCHE FAKULTAET, priority 2019, published 2022).

Key:
[1] = system: IMQ-induced, psoriasis-like skin inflammation; type: in vivo, C57BL/6 mice; settings: for penetration of the skin: mouse, in vivo
Protocol: Western blot analysis was performed as described before. The following antibodies were used and purchased from Cell Signaling: anti-IκBζ (9244), anti-phospho-STAT3 at Tyr705 (9145), anti-phospho-STAT3 at Ser727 (9134), anti-STAT3 (12640), anti-p65 (8242), anti-EZH2 (5246), anti-pRB (phospho-RB at Ser807/811; 8516), anti-FoxM1 (5436), anti-H3 (4499), anti-CDK4 (12790), anti-CDK6 (13331), anti-CDK9 (2316), anti-cyclin D1 (2978), anti-cyclin D2 (3741), anti-cyclin D3 (2936), anti-cJUN (9165), anti-H3K27me3 (9733), anti-GAPDH (2118), anti-H3 (9715) and anti-β-actin (3700). Anti-β-Gal (sc377257) and anti-GFP (sc9996) were obtained from Santa Cruz Biotechnology. Anti-pEZH2 at T345 (61242) anti-pEZH2 at T487 (12820) were purchased from Active Motif and anti-pan-methyl-lysine antibody was purchased from Enzo (ADI-KAP-TF121-E). For detection of mouse IκB, a self-made antibody raised against peptides […] (SEQ ID NO:3) and […] (SEQ ID NO:4) was applied.
Gene expression analyses were performed as described. Relative gene expression was analyzed using self-designed primers ordered at Metabion (not shown). Relative mRNA levels were calculated by normalization to the human reference gene RPL37A or the mouse reference gene Actin using the 2-ΔΔCt method.
Experiments were conducted in accordance with the German law guide-lines of animal care. Ears of female C57BL/6 mice (8-12 weeks old) were topically treated for 6 consecutive days with 5 mg Aldara cream (containing 5% imiquimod, 3M Pharmaceutical) and 0.02 mg of abemaciclib (in 10 μL ethanol), 0.05 mg CPI-169 (in 10 μL ethanol) or vehicle control. At day 7, mice were sacrificed and analysed. For IL-36α-mediated psoriasis induction, ears of male C57BL/6 mice (8-12 weeks old) were treated by intradermal injections using 1 μg murine IL-36α (aa 8-160, R&D) or PBS control for 5 consecutive days. For application of the vehicle control, abemaciclib (0.02 mg) or CPI-169 (0.05 mg), substances were mixed with Miglyol 812 (Carl Roth) in a ratio of 1:4. Inhibitors were topically applicated 6 h before intradermal injections of IL-36α or PBS were applied. Mice were sacrificed and analysed at day 6.
Sample preparation was performed as described. The following anti-mouse antibodies from BioLegend were used: anti-CD45 FITC (103107), anti-CD11b PacificBlue (101223), anti-Ly6G PE (127607), anti-F4/80 APC (123115), anti-CD11c Pacific Blue (117322), anti-MHC-II APC (107613), anti-CD172a PE (144011) and anti-Silec-H PE (129605). Anti-PDCA-1 APC (17-2092-80) and anti-αβTCR PE (HM3628) were purchased from Invitrogen, and anti-γδ-TCR APC (17-5711-82) from Sigma. Data was acquired on a LSRII flow cytometer (Becton Dickson).
Ear sections from mice were fixed in 10% formalin (Carl Roth) and subsequently embedded in paraffin. 5-μm sections were prepared and incubated with the following antibodies from Cell Signaling: pSTAT3 (9145), pRB (8516) and H3K27me3 (9733). For staining of human skin samples, EZH2 antibody (Cell Signaling, 5246) was used. Antigen retrieval was performed in 1 mM EDTA pH 8.0 for pSTAT3, and 10 mM citrate buffer pH 6.0+0.5% Triton X-100 for EZH2, H3K27me3 and pRB. After incubation with peroxidase-coupled secondary antibodies, sections were stained with DAB substrate.

[2] = system: IL-36-triggered psoriasis-like dermatitis; experiment: IL-36α-mediated psoriasis-like dermatitis mouse model, topical treatment of ears; type: in vivo, C57BL/6 mice
Protocol: Western blot analysis was performed as described before. The following antibodies were used and purchased from Cell Signaling: anti-IκBζ (9244), anti-phospho-STAT3 at […] (9145), anti-phospho-STAT3 at […] (9134), anti-STAT3 (12640), anti-p65 (8242), anti-EZH2 (5246), anti-pRB (phospho-RB at […]/811; 8516), anti-FoxM1 (5436), anti-H3 (4499), anti-CDK4 (12790), anti-CDK6 (13331), anti-CDK9 (2316), anti-cyclin D1 (2978), anti-cyclin D2 (3741), anti-cyclin D3 (2936), anti-cJUN (9165), anti-H3K27me3 (9733), anti-GAPDH (2118), anti-H3 (9715) and anti-β-actin (3700). Anti-β-Gal (sc377257) and anti-GFP (sc9996) were obtained from Santa Cruz Biotechnology. Anti-pEZH2 at […] (61242) anti-pEZH2 at […] (12820) were purchased from Active Motif and anti-pan-methyl-lysine antibody was purchased from Enzo ([…]). For detection of mouse IκB, a self-made antibody raised against peptides […] NO:3) and […] NO:4) was applied. Gene expression analyses were performed as described. Relative gene expression was analyzed using self-designed primers ordered at Metabion (not shown). Relative mRNA levels were calculated by normalization to the human reference gene RPL37A or the mouse reference gene Actin using the 2-ΔΔCt method. Experiments were conducted in accordance with the German law guide-lines of animal care. Ears of female C57BL/6 mice (8-12 weeks old) were topically treated for 6 consecutive days with 5 mg Aldara cream (containing 5% imiquimod, 3M Pharmaceutical) and 0.02 mg of abemaciclib (in 10 μL ethanol), 0.05 mg CPI-169 (in 10 μL ethanol) or vehicle control. At day 7, mice were sacrificed and analysed. For IL-36α-mediated psoriasis induction, ears of male C57BL/6 mice (8-12 weeks old) were treated by intradermal injections using 1 μg murine IL-36α (aa 8-160, R&D) or PBS control for 5 consecutive days. For application of the vehicle control, abemaciclib (0.02 mg) or CPI-169 (0.05 mg), substances were mixed with Miglyol 812 (Carl Roth) in a ratio of 1:4. Inhibitors were topically applicated 6 h before intradermal injections of IL-36α or PBS were applied. Mice were sacrificed and analysed at day 6. […]

[3] = system: TH1 cytokines and tumor-infiltrating T cells; settings: experimental cancer model, Deng et al.; cited from earlier work
[4] = flow cytometry of IMQ-treated mouse ears, day 7

SMILES	IκBζ expression in the skin, phosphorylation of EZH2 at T345 and of STAT3 at Y705 ([1]; IMQ-treated mouse skin, day 7)	expression of IκBζ target genes (Cxcl2, Cxcl5) and DC- and T-cell-derived cytokines (Il17a, Il23a) ([1]; IMQ-treated skin, day 7)	H3K27me3 expression in the epidermis (EZH2 inhibition) ([1]; ear skin sections of treated mice, FIG. 10c)	immune cell infiltration (neutrophils, macrophages and T cells) [1, 4]	number of infiltrating plasmacytoid (pDC) and myeloid dendritic cells (mDC) [1, 4]	penetration of the skin [1]	IMQ-induced, psoriasis-like skin inflammation (ear thickening, keratinocyte hyperproliferation, immune cell infiltration) ([1]; topical, daily 6 days, abemaciclib 0.02 mg, CPI-169 0.05 mg per ear)	IκBζ target gene expression and key cytokine expression (Il17a, Il23a) ([2]; IL-36α-treated skin, FIG. 12g)	keratinocyte hyperproliferation and immune cell infiltration ([2]; intradermal IL-36α 5 days, topical inhibitor, day 6)	IL-36-mediated expression of IκBζ, phosphorylation of EZH2 at T345 and activation of STAT3 (pSTAT3 Y705) ([2]; skin of treated mouse ears, day 6)	levels of TH1 cytokines and tumor-infiltrating T cells [3]
CCS(=O)(=O)N1CCC([C@@H](C)n2c(C)c(C(=O)NCc3c(OC)cc(C)[nH]c3=O)c3ccccc32)CC1 [CPI-169]	completely abrogated	significantly downregulated	loss	fully abrogated	significantly suppressed	effectively penetrated the skin	completely suppressed	effectively blocked	effectively blocked	suppressed	
CCN1CCN(Cc2ccc(Nc3ncc(F)c(-c4cc(F)c5nc(C)n(C(C)C)c5c4)n3)nc2)CC1 [abemaciclib]						effectively penetrated the skin					
CN1CCN(c2ccc(Nc3ncc4cc5n(c4n3)C3(CCCCC3)CNC5=O)nc2)CC1 [trilaciclib]											increased
